Reference: patent US20260201008A1, “SECRETIN-DERIVED GLP1R SELECTIVE AGONISTS” (GUBRA A/S, priority 2023, published 2026)
Read-outs that look alike come from different tables or passages of the source. Numbered stars: 1 amine (or outer) side, 2 acyl side, 3 side chain; on linkers, the order of the positions; unused ones are H or OH. Square brackets hold non-standard residues; d marks the D form. Side chains are listed from the residue outwards. Peptide text beside a SMILES is read from it. * marks the point of attachment. C20 diacid = O=C(O)CCCCCCCCCCCCCCCCCCC(=O)*; γGlu = O=C(O)[C@H](CCC(=O)[*:2])N[*:1]; AEEA = NCCOCCOCC(=O)O; Aib = CC(C)(N)C(=O)O

Tests used:
[1] = Turbidity of crude library peptides (absorbance at 600 nm); assay type: physicochemical; conditions: Physical stability of peptides
Procedure, shortened: (§1)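 Values reflect mean ThT emission (ex 450, em 480 nm) over 72 h at 40° C, read every 10 min after 5 min shaking at 700 rpm, plus a single initial absorbance at 600 nm for turbidity. Peptides were at 267 μM, pH 4.0 acetate or pH 7.0 phosphate (50 mM), with 4 μM ThT.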

[2] = Fibril formation of crude library peptides (Thioflavin T); assay type: physicochemical; parameters: key: average ThT fluorescence emission at 480 nm (ex 450 nm), raw units; conditions: Physical stability of peptides
Procedure, shortened: as §1

GLP1R = GLP1R (Homo sapiens, UniProt P43220); experiment: hGLP1R potency, cAMP accumulation in CHO-K1 cells stably overexpressing hGLP1R; assay type: cell-based; parameters: host or cells: CHO-K1; conditions: for SCTR EC50/GLP1R EC50 ratio: cAMP accumulation in CHO-K1 cells; for Selectivity: SCTR EC50/GLP1R EC50 ratio
Procedure, shortened: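 Potency reflects cAMP accumulation measured by time-resolved fluorescence energy transfer after a 30 min room-temperature stimulation in IBMX-containing (0.5 mM) DPBS with casein. Purified peptides were tested in duplicate over eleven threefold dilutions, and EC50 was obtained from sigmoid concentration-response fitting.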

SCTR = SCTR (Homo sapiens, UniProt P47872); experiment: hSCTR potency, cAMP accumulation in CHO-K1 cells stably overexpressing hSCTR; assay type: cell-based; parameters: alternatively Euroscreen ES-712-AF; FAST-0161L; host or cells: CHO-K1
Procedure, shortened: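 Potency reflects cAMP accumulation after 30 min agonist exposure at room temperature in hSCTR-expressing CHO-K1 cells, with 0.5 mM IBMX present to block phosphodiesterase. EC50 was derived by nonlinear regression.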

[3] = cAMP accumulation, CHO-K1 cells stably overexpressing hGLP1R, read-out: hGLP1R potency (pEC50) (converted)
[4] = selectivity ratio, hSCTR vs hGLP1R
[5] = cAMP accumulation, CHO-K1 cells stably overexpressing hSCTR, read-out: hSCTR potency (pEC50) (converted)
[6] = cAMP accumulation, CHO-K1 cells overexpressing hGLP1R, read-out: hGLP1R pEC50 (converted)
[7] = selectivity for hGLP1R over hSCTR
[8] = cAMP accumulation, CHO-K1 cells overexpressing hSCTR, read-out: hSCTR pEC50 (converted)
[9] = cAMP accumulation, CHO-K1 cells overexpressing hGLP1R, read-out: pEC50 hGLPR1 (converted)
[10] = cAMP accumulation, CHO-K1 cells overexpressing hSCTR, read-out: pEC50 hSCTR (converted)

SCTR, sequence (P47872 23-440): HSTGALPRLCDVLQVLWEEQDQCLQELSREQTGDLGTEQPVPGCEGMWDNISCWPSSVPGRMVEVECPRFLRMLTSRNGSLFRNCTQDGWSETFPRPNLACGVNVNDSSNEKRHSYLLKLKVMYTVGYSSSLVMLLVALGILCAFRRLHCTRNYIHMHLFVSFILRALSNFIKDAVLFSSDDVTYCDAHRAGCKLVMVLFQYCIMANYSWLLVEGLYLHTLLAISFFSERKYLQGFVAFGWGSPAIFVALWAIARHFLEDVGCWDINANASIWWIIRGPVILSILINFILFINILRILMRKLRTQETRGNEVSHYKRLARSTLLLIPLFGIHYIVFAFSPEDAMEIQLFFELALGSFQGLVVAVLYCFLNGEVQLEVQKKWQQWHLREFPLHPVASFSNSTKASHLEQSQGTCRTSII
GLP1R, sequence (P43220 24-463): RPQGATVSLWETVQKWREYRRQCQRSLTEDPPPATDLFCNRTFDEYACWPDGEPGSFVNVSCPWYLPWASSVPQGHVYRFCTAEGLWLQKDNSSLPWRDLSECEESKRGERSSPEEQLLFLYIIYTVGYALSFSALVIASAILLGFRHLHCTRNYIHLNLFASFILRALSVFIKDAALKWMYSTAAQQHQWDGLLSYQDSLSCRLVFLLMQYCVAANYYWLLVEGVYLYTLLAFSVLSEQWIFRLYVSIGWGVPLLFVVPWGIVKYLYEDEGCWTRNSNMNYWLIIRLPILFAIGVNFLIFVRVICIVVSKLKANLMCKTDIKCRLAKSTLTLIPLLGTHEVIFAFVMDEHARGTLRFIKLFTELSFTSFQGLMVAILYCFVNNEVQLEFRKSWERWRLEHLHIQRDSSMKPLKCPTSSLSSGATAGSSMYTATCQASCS

Row | Structure (SMILES) | Turbidity (pH 7) [1] | Fibril formation [2] | EC50 (GLP1R; [3]) [nM] | SCTR EC50/GLP1R EC50 ratio (GLP1R; [4]) | EC50 (SCTR; [5]) [nM] | EC50 (GLP1R; [6]) [nM] | SCTR EC50/GLP1R EC50 ratio (GLP1R; [7]) | EC50 (SCTR; [8]) [nM] | Selectivity (GLP1R) | EC50 (GLP1R; [9]) [nM] | EC50 (SCTR; [10]) [nM] | EC50 (GLP1R) [nM] | EC50 (SCTR) [nM]
1 | CC[C@H](C)[C@H](NC(=O)[C@H](Cc1ccccc1)NC(=O)[C@H](CCCNC(=N)N)NC(=O)[C@H](CCC(N)=O)NC(=O)[C@H](CC(C)C)NC(=O)[C@H](C)NC(=O)[C@H](C)NC(=O)CNC(=O)[C@H](CCC(=O)O)NC(=O)[C@H](CC(C)C)NC(=O)[C@H](CC(C)C)NC(=O)[C@@H](NC(=O)[C@H](CO)NC(=O)[C@H](Cc1ccc(O)cc1)NC(=O)[C@H](CC(=O)O)NC(=O)[C@H](CO)NC(=O)[C@@H](NC(=O)[C@H](Cc1ccccc1)NC(=O)[C@@H](NC(=O)CNC(=O)[C@H](CCC(=O)O)NC(=O)C(C)(C)NC(=O)[C@@H](N)Cc1c[nH]cn1)[C@@H](C)O)[C@@H](C)O)C(C)C)C(=O)N[C@@H](CCC(N)=O)C(=O)N[C@@H](Cc1c[nH]c2ccccc12)C(=O)N[C@@H](CC(C)C)C(=O)N[C@H](C(N)=O)C(C)C [compound 198] (H-H[Aib]EGTFTSDYSVLLEGAALQRFIQWLV-NH2) | 0.33 | 257659 | 0.0251 | 185 | 5.01 |  |  |  |  |  |  |  | 
2 | CC(C)C[C@H](NC(=O)[C@H](Cc1ccccc1)NC(=O)[C@H](CCCNC(=N)N)NC(=O)[C@H](CCC(N)=O)NC(=O)[C@H](CC(C)C)NC(=O)C(C)(C)NC(=O)[C@H](C)NC(=O)[C@H](CCC(=O)O)NC(=O)[C@H](CCC(=O)O)NC(=O)[C@H](CCCCNC(=O)COCCOCCNC(=O)COCCOCCNC(=O)CC[C@H](NC(=O)CCCCCCCCCCCCCCCCCCC(=O)O)C(=O)O)NC(=O)[C@H](CC(C)C)NC(=O)[C@H](CC(=O)O)NC(=O)[C@H](CO)NC(=O)[C@@H](NC(=O)[C@H](CC(=O)O)NC(=O)[C@H](CO)NC(=O)[C@@H](NC(=O)[C@H](Cc1ccccc1)NC(=O)[C@@H](NC(=O)CNC(=O)[C@H](CCC(=O)O)NC(=O)C(C)(C)NC(=O)[C@@H](N)Cc1c[nH]cn1)[C@@H](C)O)[C@@H](C)O)C(C)C)C(=O)N[C@@H](CCC(=O)O)C(=O)N[C@@H](Cc1c[nH]cn1)C(=O)N[C@@H](CC(C)C)C(=O)N[C@H](C(N)=O)C(C)C [compound 153] (H-H[Aib]EGTFTSDVSDLK([AEEA-AEEA-γGlu-C20 diacid])EEA[Aib]LQRFLEHLV-NH2) | 0.08 | 3897 |  |  |  | 0.02 | 16095 | 316 |  |  |  |  | 
3 | CC(C)C[C@H](NC(=O)[C@H](Cc1ccccc1)NC(=O)[C@H](CCCNC(=N)N)NC(=O)[C@H](CCC(N)=O)NC(=O)[C@H](CCC(=O)O)NC(=O)[C@H](C)NC(=O)[C@H](C)NC(=O)[C@H](CCC(=O)O)NC(=O)[C@H](CCC(=O)O)NC(=O)[C@H](CCCCNC(=O)COCCOCCNC(=O)COCCOCCNC(=O)CC[C@H](NC(=O)CCCCCCCCCCCCCCCCCCC(=O)O)C(=O)O)NC(=O)[C@H](CC(C)C)NC(=O)[C@H](CCC(=O)O)NC(=O)[C@H](CO)NC(=O)[C@@H](NC(=O)[C@H](CC(=O)O)NC(=O)[C@H](CO)NC(=O)[C@@H](NC(=O)[C@H](Cc1ccccc1)NC(=O)[C@@H](NC(=O)CNC(=O)[C@H](CCC(=O)O)NC(=O)C(C)(C)NC(=O)[C@@H](N)Cc1c[nH]cn1)[C@@H](C)O)[C@@H](C)O)C(C)C)C(=O)N[C@@H](CCC(=O)O)C(=O)N[C@@H](Cc1c[nH]cn1)C(=O)N[C@@H](CC(C)C)C(=O)N[C@H](C(N)=O)C(C)C [compound 51] (H-H[Aib]EGTFTSDVSELK([AEEA-AEEA-γGlu-C20 diacid])EEAAEQRFLEHLV-NH2) | 0.09 | 8475 |  |  |  |  |  |  | 63009 | 0.0316 | 2000 |  | 
4 | CC[C@H](C)[C@H](NC(=O)[C@H](Cc1ccccc1)NC(=O)[C@H](CCCNC(=N)N)NC(=O)[C@H](CCC(N)=O)NC(=O)[C@H](CC(C)C)NC(=O)[C@H](C)NC(=O)[C@H](C)NC(=O)CNC(=O)[C@H](CCC(=O)O)NC(=O)[C@H](CC(C)C)NC(=O)[C@H](CC(C)C)NC(=O)CNC(=O)[C@H](CO)NC(=O)[C@H](Cc1c[nH]c2ccccc12)NC(=O)[C@H](CC(=O)O)NC(=O)[C@H](CO)NC(=O)[C@@H](NC(=O)[C@H](Cc1ccccc1)NC(=O)[C@@H](NC(=O)CNC(=O)[C@H](CCC(=O)O)NC(=O)C(C)(C)NC(=O)[C@@H](N)Cc1c[nH]cn1)[C@@H](C)O)[C@@H](C)O)C(=O)N[C@@H](CCC(N)=O)C(=O)N[C@@H](Cc1c[nH]c2ccccc12)C(=O)N[C@@H](CC(C)C)C(=O)N[C@H](C(N)=O)C(C)C [compound 187] (H-H[Aib]EGTFTSDWSGLLEGAALQRFIQWLV-NH2) | 0.62 | 13388 | 0.0398 | 1437 | 50.1 |  |  |  |  |  |  |  | 
5 | CC(C)C[C@H](NC(=O)[C@H](Cc1ccccc1)NC(=O)[C@H](CCCNC(=N)N)NC(=O)[C@H](CCC(N)=O)NC(=O)[C@H](C)NC(=O)[C@H](C)NC(=O)[C@H](C)NC(=O)[C@@H](NC(=O)[C@H](CCC(=O)O)NC(=O)[C@H](CCCCNC(=O)COCCOCCNC(=O)COCCOCCNC(=O)CC[C@H](NC(=O)CCCCCCCCCCCCCCCCCCC(=O)O)C(=O)O)NC(=O)[C@H](CC(C)C)NC(=O)[C@@H](NC(=O)[C@H](CO)NC(=O)[C@@H](NC(=O)[C@H](CC(=O)O)NC(=O)[C@H](CO)NC(=O)[C@@H](NC(=O)[C@H](Cc1ccccc1)NC(=O)[C@@H](NC(=O)CNC(=O)[C@H](CCC(=O)O)NC(=O)C(C)(C)NC(=O)[C@@H](N)Cc1c[nH]cn1)[C@@H](C)O)[C@@H](C)O)C(C)C)C(C)C)[C@@H](C)O)C(=O)N[C@@H](CCC(=O)O)C(=O)N[C@@H](Cc1c[nH]cn1)C(=O)N[C@@H](CC(C)C)C(=O)N[C@H](C(N)=O)C(C)C [compound 62] (H-H[Aib]EGTFTSDVSVLK([AEEA-AEEA-γGlu-C20 diacid])ETAAAQRFLEHLV-NH2) | 0.08 | 21979 |  |  |  |  |  |  | 18608 |  |  | 0.1 | 2000

Further lines, with some results ahead:

Row | Turbidity (pH 7) [1] | Fibril formation [2] | EC50 (GLP1R; [3]) [nM] | SCTR EC50/GLP1R EC50 ratio (GLP1R; [4]) | EC50 (SCTR; [5]) [nM] | EC50 (GLP1R; [6]) [nM] | SCTR EC50/GLP1R EC50 ratio (GLP1R; [7]) | EC50 (SCTR; [8]) [nM] | Selectivity (GLP1R) | EC50 (GLP1R; [9]) [nM] | EC50 (SCTR; [10]) [nM] | Structure (SMILES) | EC50 (GLP1R) [nM] | EC50 (SCTR) [nM]
6 | 0.08 | 24482 |  |  |  | 0.126 | 6301 | 794 |  |  |  | CC(C)C[C@H](NC(=O)[C@H](Cc1ccccc1)NC(=O)[C@H](CCCNC(=N)N)NC(=O)[C@H](CCC(N)=O)NC(=O)[C@H](CCC(N)=O)NC(=O)[C@H](C)NC(=O)[C@H](C)NC(=O)[C@H](Cc1ccccc1)NC(=O)[C@H](CCC(=O)O)NC(=O)[C@H](CCCCNC(=O)COCCOCCNC(=O)COCCOCCNC(=O)CC[C@H](NC(=O)CCCCCCCCCCCCCCCCCCC(=O)O)C(=O)O)NC(=O)[C@H](CC(C)C)NC(=O)[C@@H](NC(=O)[C@H](CO)NC(=O)[C@@H](NC(=O)[C@H](CC(=O)O)NC(=O)[C@H](CO)NC(=O)[C@@H](NC(=O)[C@H](Cc1ccccc1)NC(=O)[C@@H](NC(=O)CNC(=O)[C@H](CCC(=O)O)NC(=O)C(C)(C)NC(=O)[C@@H](N)Cc1c[nH]cn1)[C@@H](C)O)[C@@H](C)O)C(C)C)[C@@H](C)O)C(=O)N[C@@H](CCC(=O)O)C(=O)N[C@@H](Cc1c[nH]cn1)C(=O)N[C@@H](CC(C)C)C(=O)N[C@H](C(N)=O)C(C)C [compound 100] (H-H[Aib]EGTFTSDVSTLK([AEEA-AEEA-γGlu-C20 diacid])EFAAQQRFLEHLV-NH2) |  | 
7 | 0.08 | 7462 |  |  |  |  |  |  | 8143 | 0.02 | 158 | CC(C)C[C@H](NC(=O)[C@H](Cc1ccccc1)NC(=O)[C@H](CCCNC(=N)N)NC(=O)[C@H](CCC(N)=O)NC(=O)[C@H](C)NC(=O)[C@H](C)NC(=O)[C@H](C)NC(=O)[C@@H](NC(=O)[C@H](CCC(=O)O)NC(=O)[C@H](CCCCNC(=O)COCCOCCNC(=O)COCCOCCNC(=O)CC[C@H](NC(=O)CCCCCCCCCCCCCCCCCCC(=O)O)C(=O)O)NC(=O)[C@H](CC(C)C)NC(=O)[C@H](CCCNC(=N)N)NC(=O)[C@H](CO)NC(=O)[C@@H](NC(=O)[C@H](CC(=O)O)NC(=O)[C@H](CO)NC(=O)[C@@H](NC(=O)[C@H](Cc1ccccc1)NC(=O)[C@@H](NC(=O)CNC(=O)[C@H](CCC(=O)O)NC(=O)C(C)(C)NC(=O)[C@@H](N)Cc1c[nH]cn1)[C@@H](C)O)[C@@H](C)O)C(C)C)[C@@H](C)O)C(=O)N[C@@H](CCC(=O)O)C(=O)N[C@@H](Cc1c[nH]cn1)C(=O)N[C@@H](CC(C)C)C(=O)N[C@H](C(N)=O)C(C)C [compound 23] (H-H[Aib]EGTFTSDVSRLK([AEEA-AEEA-γGlu-C20 diacid])ETAAAQRFLEHLV-NH2) |  | 
